From paper PMC7031696 (Cell chemical biology, 2019)

Tested on: 3D7-MR4 trophozoite parasite-infected RBCs
Assay: Metabolomic profiling (hydrophilic metabolite changes, UHPLC-MS)
Assay type: cell-based, Plasmodium falciparum

CC(C)(C)c1ccc2c(c1)CN(Cc1ccc(Cl)cc1)CO2 [MMV000442]
Log2(fold changes) adenosine (metabolite adenosine, log2 fold change): 0.0000 | Log2(fold changes) alanine/sarcosine (metabolite alanine/sarcosine, log2 fold change): -0.9186 | Log2(fold changes) anthranilate (metabolite anthranilate, log2 fold change): 0.3315 | Log2(fold changes) arginine (metabolite arginine, log2 fold change): -1.6314 | Log2(fold changes) asparagine (metabolite asparagine, log2 fold change): -0.3296 | Log2(fold changes) aspartate (metabolite aspartate, log2 fold change): -0.6205 | Log2(fold changes) biotin (metabolite biotin, log2 fold change): -0.8987 | Log2(fold changes) cCMP (metabolite cCMP, log2 fold change): 0.0000 | Log2(fold changes) cGMP (metabolite cGMP, log2 fold change): 0.0000 | Log2(fold changes) carnitine (metabolite carnitine, log2 fold change): 0.0000 | Log2(fold changes) citrate/isocitrate (metabolite citrate/isocitrate, log2 fold change): 0.0000 | Log2(fold change) of coenzyme A (metabolite coenzyme A): 0.0000 | Log2(fold change) of cyclic-AMP (metabolite cyclic-AMP): -0.6289 | Log2(fold change) of cytidine (metabolite cytidine): 0.6525 | Log2(fold change) of dAMP (metabolite dAMP): 0.2859 | Log2(fold change) of dATP (metabolite dATP): 0.0000 | Log2(fold change) of dCDP (metabolite dCDP): -0.4379 | Log2(fold change) of dCMP (metabolite dCMP): 0.0000 | Log2(fold change) of dCTP (metabolite dCTP): 0.0000 | Log2(fold change) of dGDP/ADP (metabolite dGDP/ADP): -0.0785 | Log2(fold change) of dGMP/AMP (metabolite dGMP/AMP): 0.0000 | Log2(fold change) of dGTP/ATP (metabolite dGTP/ATP): 0.0000 | Log2(fold change) of dTDP (metabolite dTDP): -0.1987 | Log2(fold change) of dTMP (metabolite dTMP): 0.0000 | Log2(fold change) of dTTP (metabolite dTTP): -0.2587 | Log2(fold change) of dUMP (metabolite dUMP): 0.0000 | Log2(fold change) of dUTP (metabolite dUTP): -0.3266 | Log2(fold change) of deoxyguanosine (metabolite deoxyguanosine): 0.0000 | Log2(fold change) of deoxyinosine (metabolite deoxyinosine): 0.0000 | Log2(fold change) of deoxyribose-phosphate (metabolite deoxyribose-phosphate): 0.7610 | Log2(fold change) of deoxyuridine (metabolite deoxyuridine): 0.1388 | Log2(fold change) of dihydroorotate (metabolite dihydroorotate): -0.6717 | Log2(fold change) of folate (metabolite folate): -0.1041 | Log2(fold change) of fructose-1-6-bisphosphate (metabolite fructose-1-6-bisphosphate): -0.1009 | Log2(fold change) of fructose-6-phosphate (metabolite fructose-6-phosphate): -0.3802 | Log2(fold change) of fumarate (metabolite fumarate): -0.7813 | Log2(fold change) of glucono-lactone (metabolite glucono-lactone): 0.0000 | Log2(fold change) of glucose-1/6-phosphate (metabolite glucose-1/6-phosphate): 0.0000 | Log2(fold change) of glutamate (metabolite glutamate): -0.2803 | Log2(fold change) of glutamine (metabolite glutamine): -0.0929 | Log2(fold change) of glutathione (metabolite glutathione): -0.1808 | Log2(fold change) glutathione disulfide (metabolite glutathione disulfide): -0.3868 | Log2(fold change) glycerate (metabolite glycerate): -0.4490 | Log2(fold change) guanine (metabolite guanine): -0.8448 | Log2(fold change) guanosine (metabolite guanosine): -1.2469 | Log2(fold change) histidine (metabolite histidine): -1.0996 | Log2(fold change) homocysteic acid (metabolite homocysteic acid): -0.4943 | Log2(fold change) hydroxyphenylpyruvate (metabolite hydroxyphenylpyruvate): 0.0000 | Log2(fold change) hydroxyproline/Aminolevulinate (metabolite hydroxyproline/Aminolevulinate): -0.0777 | Log2(fold change) hypoxanthine (metabolite hypoxanthine): -0.1293 | Log2(fold change) indole (metabolite indole): 0.0000 | Log2(fold change) inosine (metabolite inosine): -0.6031 | Log2(fold change) isoleucine (metabolite isoleucine): -0.8559 | Log2(fold change) lactate (metabolite lactate): -0.6662 | Log2(fold change) leucine (metabolite leucine): 0.0000 | Log2(fold change) lysine (metabolite lysine): -2.7291 | Log2(fold change) malate (metabolite malate): -1.5961 | Log2(fold change) maleic acid (metabolite maleic acid): 0.0000 | Log2(fold change) methionine (metabolite methionine): -0.3354 | Log2(fold change) myo-inositol (metabolite myo-inositol): 0.0000 | Log2(fold change) nicotinamide mononucleotide (metabolite nicotinamide mononucleotide): -1.1163 | Log2(fold change) nicotinate (metabolite nicotinate): -0.1414 | Log2(fold change) ornithine (metabolite ornithine): -0.3825 | Log2(fold change) orotate (metabolite orotate): 0.0000 | Log2(fold change) orotidine-5'-phosphate (metabolite orotidine-5'-phosphate): -4.2271 | Log2(fold change) oxaloacetate (metabolite oxaloacetate): 0.0000 | Log2(fold change) p-aminobenzoate (metabolite p-aminobenzoate): 0.0000 | Log2(fold change) p-hydroxybenzoate (metabolite p-hydroxybenzoate): 0.0000 | Log2(fold change) pantothenate (metabolite pantothenate): -0.5576 | Log2(fold change) phenylalanine (metabolite phenylalanine): -0.7473 | Log2(fold change) phenylpyruvate (metabolite phenylpyruvate): 0.0000 | Log2(fold change) phosphoenolpyruvate (metabolite phosphoenolpyruvate): 0.5342 | Log2(fold change) prephenate (metabolite prephenate): -0.6985 | Log2(fold change) proline (metabolite proline): -0.4674 | Log2(fold change) pyridoxine (metabolite pyridoxine): -0.4977 | Log2(fold change) pyruvate (metabolite pyruvate): -0.6971 | Log2(fold change) riboflavin (metabolite riboflavin): 0.0000 | Log2(fold change) ribose (metabolite ribose): -0.3439 | Log2(fold change) ribose-phosphate (metabolite ribose-phosphate): -0.4255 | Log2(fold change) ribulose-5-phosphate (metabolite ribulose-5-phosphate): 0.0000 | Log2(fold change) serine (metabolite serine): -0.2977 | Log2(fold change) sn-glycerol-3-phosphate (metabolite sn-glycerol-3-phosphate): 0.0000 | Log2(fold change) succinate/Methylmalonic acid (metabolite succinate/Methylmalonic acid): 0.2362 | Log2(fold change) succinyl-CoA/methylmalonyl-CoA (metabolite succinyl-CoA/methylmalonyl-CoA): 0.0000 | Log2(fold change) taurine (metabolite taurine): 0.0000 | Log2(fold change) thiamine (metabolite thiamine): -0.4264 | Log2(fold change) threonine/homoserine (metabolite threonine/homoserine): -0.5095 | Log2(fold change) thymidine (metabolite thymidine): 0.0000 | Log2(fold changes) thymine (metabolite thymine, log2 fold change): 0.0000 | Log2(fold changes) trehalose-6-Phosphate (metabolite trehalose-6-Phosphate, log2 fold change): 0.0000 | Log2(fold changes) tryptophan (metabolite tryptophan, log2 fold change): -0.3248 | Log2(fold changes) tyrosine (metabolite tyrosine, log2 fold change): -0.3731 | Log2(fold changes) uridine (metabolite uridine, log2 fold change): -0.7263 | Log2(fold changes) valine (metabolite valine, log2 fold change): 0.0000 | Log2(fold changes) xanthine (metabolite xanthine, log2 fold change): 0.0000 | Log2(fold changes) xanthosine-5-phosphate (metabolite xanthosine-5-phosphate, log2 fold change): 0.0000 | Log2(fold changes) xanthosine (metabolite xanthosine, log2 fold change): -0.5168 | Log2(fold changes) xylose (metabolite xylose, log2 fold change): 0.0000
